Measured values from the supplement of paper PMC10307832.

What was measured:
Assay in all cases: relative viability (nuclei count vs DMSO), 5 days (fraction); higher = more cells survive
[1] = compound: CC[C@@H](C)CNCC(=O)N1CCC2=C([C@@H]1COC3=CC=CC(=C3)C)C=CS2 [RU-SKI 43] + O=C(c1cc(Cc2n[nH]c(=O)c3ccccc23)ccc1F)N1CCN(C(=O)C2CC2)CC1 [Olaparib] (partner 8 µM)
How it was run: (§1)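 Lung cancer cell lines in 1536-well plates were dosed by pin tool the day after seeding, either with one drug alone or with a fixed anchor-drug dose plus five library-drug doses (not always all listed) in √10 steps. After 5 days, cells were fixed and their nuclei stained in one step (final 0.05% Triton X-100, 1% formaldehyde, 1 ug/ml Hoechst), then counted on 4× images. Relative viability is the nuclei count in treated wells divided by that in vehicle wells. Values are medians of duplicate plates.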

[2] = compound: CCc1c2c(nc3ccc(OC(=O)N4CCC(N5CCCCC5)CC4)cc13)-c1cc3c(c(=O)n1C2)COC(=O)[C@]3(O)CC [Irinotecan] + O=C(CCCCCCC(=O)Nc1ccccc1)NO [Vorinostat] (partner 1 µM)
How it was run: as §1

[3] = compound: CC[C@@H](C)CNCC(=O)N1CCC2=C([C@@H]1COC3=CC=CC(=C3)C)C=CS2 [RU-SKI 43] + NC(=O)Nc1cc(-c2cccc(F)c2)sc1C(=O)N[C@H]1CCCNC1 [AZD7762] (partner 0.2 µM)
How it was run: as §1

[4] = compound: CC[C@@H](C)CNCC(=O)N1CCC2=C([C@@H]1COC3=CC=CC(=C3)C)C=CS2 [RU-SKI 43] + O=C(CCCCCCC(=O)Nc1ccccc1)NO [Vorinostat] (partner 1 µM)
How it was run: as §1

Row | Cell Line | relative viability ([1]; first compound 0.1 µM) | relative viability ([1]; first compound 0.3162 µM) | relative viability ([1]; first compound 1 µM) | relative viability ([1]; first compound 3.162 µM) | relative viability ([1]; first compound 10 µM) | relative viability ([2]; first compound 0.6325 µM) | relative viability ([2]; first compound 2 µM) | relative viability ([2]; first compound 6.325 µM) | relative viability ([2]; first compound 20 µM) | relative viability ([3]; first compound 0.1 µM) | relative viability ([3]; first compound 0.3162 µM) | relative viability ([3]; first compound 1 µM) | relative viability ([3]; first compound 3.162 µM) | relative viability ([3]; first compound 10 µM) | relative viability ([4]; first compound 0.1 µM) | relative viability ([4]; first compound 0.3162 µM) | relative viability ([4]; first compound 1 µM) | relative viability ([4]; first compound 3.162 µM) | relative viability ([4]; first compound 10 µM)
1 | NCI-H2087 | 0.481 | 0.63 | 0.669 | 0.616 | 0.559 | 0.235 | 0.215 | 0.165 | 0.16 | 1.33 | 1.65 | 1.3 | 1.36 | 1.31 | 0.818 | 1.02 | 0.985 | 0.789 | 0.57
2 | NCI-H1395 | 0.452 | 0.417 | 0.451 | 0.477 | 0.46 |  | 0.714 | 0.522 | 0.268 | 0.382 | 0.394 | 0.387 | 0.393 | 0.394 | 0.844 | 0.602 | 1.07 | 0.611 | 0.91
3 | ABC-1 | 0.714 | 0.786 | 0.908 | 0.926 | 0.705 |  | 0.566 | 0.405 | 0.348 | 0.894 | 0.867 | 1.2 | 0.727 | 0.957 | 0.964 | 1.08 | 1.27 | 1.01 | 1.16
4 | NCI-H2023 | 0.457 | 0.478 | 0.44 | 0.416 | 0.526 | 0.365 | 0.451 | 0.204 | 0.0592 |  |  |  |  |  | 0.742 | 0.918 | 0.772 | 0.815 | 0.602
5 | PC-14 | 0.22 | 0.174 | 0.294 | 0.263 | 0.401 | 0.477 | 0.392 | 0.217 | 0.102 | 0.392 | 0.377 | 0.441 | 0.32 | 0.379 | 0.661 | 0.69 | 0.739 | 0.86 | 0.585
6 | EBC-1 | 0.817 | 0.883 | 0.759 | 0.729 | 0.642 |  |  |  |  |  |  |  |  |  |  |  |  |  | 
7 | NCI-H2228 | 0.6 | 0.858 | 0.642 | 0.638 | 0.654 | 0.567 | 0.592 | 0.435 | 0.433 |  |  |  |  |  | 0.603 | 0.928 | 0.828 | 0.727 | 0.596
8 | NCI-H1703 | 0.439 | 0.456 | 0.407 | 0.452 | 0.248 |  |  |  |  | 0.177 | 0.137 | 0.134 | 0.11 | 0.12 |  |  |  |  | 
9 | NCI-H2009 | 0.659 | 0.803 | 0.735 | 0.698 | 0.584 | 0.589 | 0.379 | 0.236 | 0.135 |  |  |  |  |  | 0.692 | 0.757 | 0.751 | 0.693 | 0.679
10 | COR-L 105 | 0.658 | 0.57 | 0.815 | 0.683 | 0.603 | 0.856 | 0.643 | 0.621 | 0.334 |  |  |  |  |  | 0.8 | 0.913 | 0.796 | 0.886 | 0.895
11 | COR-L23 | 0.333 | 0.403 | 0.377 | 0.325 | 0.359 | 0.169 | 0.184 | 0.199 | 0.0826 |  |  |  |  |  | 0.427 | 0.376 | 0.532 | 0.499 | 0.387
12 | NCI-H520 | 0.35 | 0.292 | 0.372 | 0.344 | 0.335 | 0.442 | 0.394 | 0.278 | 0.162 |  |  |  |  |  | 0.77 | 0.745 | 0.788 | 0.704 | 0.646
13 | NCI-H1650 | 0.654 | 1.03 | 0.823 | 0.919 | 0.709 | 0.518 | 0.349 | 0.351 | 0.162 |  |  |  |  |  | 0.55 | 0.674 | 0.523 | 0.583 | 0.589
14 | A549 | 0.362 | 0.462 | 0.277 | 0.278 | 0.291 |  |  |  |  |  |  |  |  |  |  |  |  |  | 
15 | SK-MES-1 | 0.643 | 0.775 | 0.762 | 0.737 | 0.702 | 0.821 | 0.756 | 0.372 | 0.193 |  |  |  |  |  | 1.15 | 1.45 | 1.28 | 1.21 | 1.1
16 | SW 1573 | 0.442 | 0.479 | 0.51 | 0.435 | 0.41 |  | 0.605 | 0.209 | 0.0706 |  |  |  |  |  | 0.746 | 0.997 | 0.963 | 0.934 | 0.767
17 | IA-LM | 0.877 | 0.87 | 0.976 | 0.732 | 0.812 |  | 0.619 | 0.251 | 0.0877 |  |  |  |  |  | 0.795 | 0.993 | 0.964 | 0.978 | 0.977
18 | NCI-H1792 | 0.301 | 0.472 | 0.474 | 0.385 | 0.281 |  |  |  |  | 0.623 | 0.753 | 0.656 | 0.712 | 0.686 |  |  |  |  | 
19 | NCI-H661 | 0.763 | 0.976 | 0.718 | 0.786 | 0.665 | 0.688 | 0.49 | 0.344 | 0.252 |  |  |  |  |  | 0.752 | 0.984 | 0.815 | 0.777 | 0.736
